Reference: publication PMC12190436, “5-Ene-2-arylaminothiazol-4(5H)-ones Induce Apoptosis in Breast Cancer Cells” (Cells, 2025)

What was measured:
[1] = system: RPMI-8226; assay type: cell-based
[2] = system: A549/ATCC; assay type: cell-based
[3] = system: HOP-62; assay type: cell-based
[4] = system: COLO 205; assay type: cell-based
[5] = system: HCC -2998; assay type: cell-based
[6] = system: SF-539; assay type: cell-based
[7] = system: U251; assay type: cell-based
[8] = system: MALME -3M; assay type: cell-based
[9] = system: M14; assay type: cell-based
[10] = system: SK-MEL-2; assay type: cell-based
[11] = system: Melanoma; assay type: cell-based
[12] = system: OVCAR-3; assay type: cell-based
[13] = system: OVCAR-5; assay type: cell-based
[14] = system: 786-0; assay type: cell-based
[15] = system: ACHN; assay type: cell-based
[16] = system: CAKI-1; assay type: cell-based
[17] = system: RXF 393; assay type: cell-based
[18] = system: UO-31; assay type: cell-based
[19] = system: PC-3; assay type: cell-based
[20] = system: MDA-MB-231/ATCC; assay type: cell-based
[21] = system: Breast Cancer; assay type: cell-based
[22] = system: cytochrome C; assay: cytochrome C concentration, SimpleStep ELISA; assay type: cell-based, human; settings: 5 µM, 24 h, MCF-7
Description: To determine the effects of the new 4-thiazolidinone derivatives and the reference drug on the concentration of p53 and cytochrome C in MCF-7 cell lysates or supernatants after 24 h of treatment, highly sensitive SimpleStep ELISA (enzyme-linked immunosorbent assay) kits (Abcam, Cambridge, UK) were applied. The cells were collected and washed thrice with cold PBS and centrifuged at 1000× g for 5 min at 4 °C. Next, the cells were suspended in lysis buffer to acquire cell lysates. Concurrently, the supernatants, acquired after centrifugation, were frozen immediately at −80 °C. The standards, samples, and antibody cocktail were added to the appropriate microtiter plate wells, followed by 1 h incubation at room temperature. The content of microplate wells was extracted, and the wells were washed thrice. Afterwards, a TMB development solution was added to each well. The enzyme–substrate reaction was terminated with a stop solution. The change in color was assessed by UV-VIS Helios Gamma (Unicam/ThermoFisher Scientific Inc., Cleveland, OH, USA) at 450 ± 2 nm wavelength.
Both p53 and cytochrome C proteins play pivotal roles in the process of apoptosis. For this reason, concentrations of the mentioned proteins were measured in MCF-7 cells after 24 h treatment with the tested compounds (Les-6416, Les-6418, Les-6381, Les-6423, Les-6424) in concentrations of 5 µM.

[23] = Homo sapiens, 48 h, read-out: LC50 (the source's name)

Compound: COc1cc(NC2=NC(=O)C(=Cc3c[nH]c4ccccc34)S2)cc(OC)c1OC [Les-6418, 5-((1H-Indol-3-yl)methylene)-2-((3,4,5-trimethoxyphenyl)amino)thiazol-4(5H)-one]
- GI50 ([1]; Homo sapiens, RPMI-8226, 48 h): 5.73 µM
- CC50 ([1]; Homo sapiens, RPMI-8226, 48 h, read-out: LC50 (the source's name)): > 100 µM
- TGI ([1]; RPMI-8226, 48 h): > 100 µM
- SI (TGI) ([1]; RPMI-8226, MG_MID_60/value): 0.19
- TGI ([2]; 48 h): 16.5 µM
- GI50 ([2]; Homo sapiens, 48 h): 2.84 µM
- LC50 ([2]; Homo sapiens, 48 h): 73.6 µM
- SI (TGI) ([2]; MG_MID_60/value): 1.13
- TGI ([3]; HOP-62, 48 h): 15.7 µM
- SI (TGI) ([3]; HOP-62, MG_MID_60/value): 1.18
- GI50 ([3]; Homo sapiens, HOP-62, 48 h): 2.69 µM
- LC50 ([3]; Homo sapiens, HOP-62, 48 h): 65.9 µM
- TGI ([4]; COLO 205, 48 h): 16.4 µM
- SI (TGI) ([4]; COLO 205, MG_MID_60/value): 1.13
- GI50 ([4]; Homo sapiens, COLO 205, 48 h): 3.14 µM
- CC50 ([4]; Homo sapiens, COLO 205, 48 h, read-out: LC50 (the source's name)): 49.6 µM
- TGI ([5]; HCC -2998, 48 h): 20.7 µM
- SI (TGI) ([5]; HCC -2998, MG_MID_60/value): 0.90
- GI50 ([5]; Homo sapiens, HCC -2998, 48 h): 6.36 µM
- CC50 ([5]; Homo sapiens, HCC -2998, 48 h, read-out: LC50 (the source's name)): 47.8 µM
- GI50 ([6]; Homo sapiens, SF-539, 48 h): 2.49 µM
- CC50 ([6]; Homo sapiens, SF-539, 48 h, read-out: LC50 (the source's name)): 35.5 µM
- Growth % ([6]; SF-539, 10 μM, one dose, 48 h): −85.30%
- TGI ([6]; SF-539, 48 h): 9.95 µM
- SI (TGI) ([6]; SF-539, MG_MID_60/value): 1.87
- GI50 ([7]; Homo sapiens, U-251, U251, 48 h): 3.27 µM
- CC50 ([7]; Homo sapiens, U-251, U251, 48 h, read-out: LC50 (the source's name)): 54.7 µM
- TGI ([7]; U251, 48 h): 15.7 µM
- SI (TGI) ([7]; U251, MG_MID_60/value): 1.18
- Growth % ([7]; U-251, 10 μM, one dose, 48 h): −79.79%
- TGI ([8]; 48 h): 15.2 µM
- GI50 ([8]; Homo sapiens, 48 h): 2.01 µM
- CC50 [8, 23]: 43.9 µM
- SI (TGI) ([8]; MG_MID_60/value): 1.22
- GI50 ([9]; Homo sapiens, M14, 48 h): 2.02 µM
- CC50 ([9]; Homo sapiens, M14, 48 h, read-out: LC50 (the source's name)): 55.6 µM
- TGI ([9]; M14, 48 h): 15.9 µM
- SI (TGI) ([9]; M14, MG_MID_60/value): 1.17
- GI50 ([10]; Homo sapiens, SK-MEL-2, 48 h): 1.45 µM
- CC50 ([10]; Homo sapiens, SK-MEL-2, 48 h, read-out: LC50 (the source's name)): 43.1 µM
- TGI ([10]; SK-MEL-2, 48 h): 12.2 µM
- SI (TGI) ([10]; SK-MEL-2, MG_MID_60/value): 1.52
- GI50 ([11]; Homo sapiens, Melanoma subpanel mean, read-out: MG_MID GI50): 3 µM
- CC50 ([11]; Homo sapiens, Melanoma subpanel mean, read-out: MG_MID LC50): 43.1 µM
- MG_MID TGI ([11]; Melanoma subpanel mean): 14.9 µM
- SI (MG_MID TGI) ([11]; Melanoma subpanel, MG_MID_60/value): 1.25
- GI50 ([12]; Homo sapiens, OVCAR-3, 48 h): 0.517 µM
- CC50 ([12]; Homo sapiens, OVCAR-3, 48 h, read-out: LC50 (the source's name)): 34 µM
- Growth % ([12]; OVCAR-3, 10 μM, one dose, 48 h): 76.96%
- TGI ([12]; OVCAR-3, 48 h): 5.32 µM
- SI (TGI) ([12]; OVCAR-3, MG_MID_60/value): 3.50
- GI50 ([13]; Homo sapiens, OVCAR-5, 48 h): 4.58 µM
- LC50 (concentration killing 50% of cells) ([13]; Homo sapiens, OVCAR-5, 48 h): 44.1 µM
- TGI ([13]; OVCAR-5, 48 h): 17.7 µM
- SI (TGI) ([13]; OVCAR-5, MG_MID_60/value): 1.05
- Growth % ([14]; 786-0, 10 μM, one dose, 48 h): −73.06%
- TGI ([14]; 786-0, 48 h): 11.9 µM
- SI (TGI) ([14]; 786-0, MG_MID_60/value): 1.56
- GI50 ([14]; Homo sapiens, 786-0, 48 h): 2.72 µM
- CC50 ([14]; Homo sapiens, 786-0, 48 h, read-out: LC50 (the source's name)): 55.7 µM
- TGI ([15]; 48 h): 12.0 µM
- GI50 ([15]; Homo sapiens, 48 h): 3.2 µM
- CC50 [15, 23]: 36.1 µM
- SI (TGI) ([15]; MG_MID_60/value): 1.55
- TGI ([16]; CAKI-1, 48 h): 10.3 µM
- SI (TGI) ([16]; CAKI-1, MG_MID_60/value): 1.81
- GI50 ([16]; Homo sapiens, CAKI-1, 48 h): 0.84 µM
- CC50 ([16]; Homo sapiens, CAKI-1, 48 h, read-out: LC50 (the source's name)): 33.1 µM
- GI50 ([17]; Homo sapiens, RXF 393, 48 h): 1 µM
- CC50 ([17]; Homo sapiens, RXF 393, 48 h, read-out: LC50 (the source's name)): 34 µM
- TGI ([17]; RXF 393, 48 h): 5.80 µM
- SI (TGI) ([17]; RXF 393, MG_MID_60/value): 3.21
- GI50 ([18]; Homo sapiens, UO-31, 48 h): 3.43 µM
- CC50 ([18]; Homo sapiens, UO-31, 48 h, read-out: LC50 (the source's name)): 38.8 µM
- TGI ([18]; UO-31, 48 h): 13.7 µM
- SI (TGI) ([18]; UO-31, MG_MID_60/value): 1.36
- GI50 ([19]; Homo sapiens, PC-3, 48 h): 2.59 µM
- CC50 ([19]; Homo sapiens, PC-3, 48 h, read-out: LC50 (the source's name)): 94.2 µM
- TGI ([19]; PC-3, 48 h): 22.6 µM
- SI (TGI) ([19]; PC-3, MG_MID_60/value): 0.82
- TGI ([20]; 48 h): 18.8 µM
- GI50 ([20]; Homo sapiens, 48 h): 4.77 µM
- CC50 [20, 23]: 55.2 µM
- SI (TGI) ([20]; MG_MID_60/value): 0.99
- MG_MID TGI ([21]; Breast Cancer subpanel mean): 13.2 µM
- SI (MG_MID TGI) ([21]; Breast Cancer subpanel, MG_MID_60/value): 1.41
- GI50 ([21]; Homo sapiens, Breast Cancer subpanel mean, read-out: MG_MID GI50): 2.32 µM
- CC50 ([21]; Homo sapiens, Breast Cancer subpanel mean, read-out: MG_MID LC50): 55.8 µM

Compound: COc1cc(NC2=NC(=O)C(=Cc3ccc4cc[nH]c4c3)S2)cc(OC)c1OC [Les-6416, 5-((1H-Indol-6-yl)methylene)-2-((3,4,5-trimethoxyphenyl)amino)thiazol-4(5H)-one]
- Concentration of cytochrome c [22]: 4.56 ± 0.85 ng/mL
